Patent publication US20200397894A1, “COMPOSITIONS AND METHODS FOR TREATING CANCER” (University of Virginia Patent Foundation, priority 2016, published 2020)

Experiments:
[1] = test system: DM331 xenografts; test: Melanoma flank xenograft in nude mice; assay type: in vivo; conditions: vs. vehicle; PLX4720 in rodent diet 417 mg/kg
Description: All animal experiments were performed after approval of animal protocols by the Animal Care and Use Committee (ACUC) of the University of Virginia. Animals were housed and handled in accordance with the guidelines of the ACUC of the University of Virginia. The effect of pevonedistat on melanoma growth was tested in flank xenograft models. Foxn1^nu (20-25 g body weight, 4-5 weeks old females) athymic nude immune-deficient mice (Harlan Laboratories, now Envigo, Indianapolis, Ind., United States of America) were used in this study. Pevonedistat was dissolved in sterile 10% DMSO containing PBS (stock 1 mM), filtered, and stored in −20° C. until use. DM93, VMM39, SLM2, DM331, or SK-MEL-24 (2×10^6) melanoma cells were implanted in both flanks of immune-deficient mice (n=12 mice per group) and tumor growth was monitored until they grow to an average volume of 150-200 mm^3, and mice were randomized into groups for treatment. Animals were administered 0.2 mL pevonedistat solution (30 or 60 mg/kg body weight as indicated) intraperitoneally on a schedule of two cycles of five-day treatment followed by five treatment-free days, for 3 weeks, or more as indicated. Control animals were treated with an equal volume of sterile vehicle (10% DMSO in PBS). Where indicated, mice received control rodent diet, or rodent diet with 417 mg/kg PLX4720 (Research Diets, Inc. New Brunswick, N.J., United States of America). Tumors were measured with an electronic caliper every other day for 3 weeks post-drug injection. Animal weight was recorded once a week to detect any weight loss due to the toxicity of drug treatment or tumor burden. At the end of the treatment, animals were euthanized and tumors harvested for further processing. The results shown are mean tumor volumes±s.e.m; *p<0.05, **p<0.01, ***p<0.001.

[2] = test system: DM93 cells; test: Cell cycle distribution and rereplication by propidium iodide staining and FACS; assay type: cell-based, human
Description: The effects of pevonedistat, vemurafenib, and/or silencing of various cell cycle-associated proteins by siRNA on cell cycle distribution and rereplication were assessed by propidium iodide staining and flow cytometry of asynchronous melanoma cultures. Synchronization of cells was not employed to avoid bias and to be able to measure the impact of these perturbations on proliferating cancer cells. […] Cells were washed with cold PBS, harvested, and fixed in 70% (v/v) ethanol. Cells were subsequently treated with 20 μg of DNase-free RNase and stained with propidium iodide according to instructions of the manufacturer. Samples were analyzed on a FACSCAN™ (Becton, Dickinson and Company, Franklin Lakes, N.J., United States of America) and G0-G1, S, and G2-M fractions were segmented, and apoptotic (sub-G1 DNA content) and rereplicating (>G2/M DNA content) fractions were determined using FLOWJO® (FLOWJO, LLC, Ashland, Oreg., United States of America) and ModFit (Verity Software House, Topsham, Me., United States of America) software.

[3] = test system: DM331 and SK-MEL-24 cells from PLX4720-resistant tumors; test: In vitro sensitivity of cells extracted ex vivo from PLX4720-resistant tumors; assay type: cell-based, human; conditions: DM331 and SK-MEL-24 cells extracted ex vivo
Description: Proliferation and viability of cultured cells was measured by CELLTITER96® Non-radioactive Cell Proliferation Assay (Promega Corporation; Madison, Wis., United States of America). Briefly, various wild type and mutant BRAF melanoma cells were seeded in 96 well plates and treated with pevonedistat, vemurafenib, or the combination pevonedistat and vemurafenib at various concentrations. Control cells were treated with DMSO. 96 hours following treatment, cells were stained with the dye solution according to the manufacturer's protocol. Absorbance was recorded at 570 nm and growth curves were established. […] Cells were counted every 24 hours using a COUNTESS™ Automated Cell Counter (INVITROGEN™, Carlsbad, Calif., United States of America), and harvested at the indicated times for PI staining and FACS analysis (cell cycle profile) or for immunoblotting.
The effects of pevonedistat, vemurafenib, and/or silencing of various cell cycle-associated proteins by siRNA on cell cycle distribution and rereplication were assessed by propidium iodide staining and flow cytometry of asynchronous melanoma cultures. […]

[4] = test system: VMM39 cells; test: Rereplication by propidium iodide staining and FACS; assay type: cell-based, human; conditions: retroviral overexpression of SET8 and/or p21 species
Description: The effects of pevonedistat, vemurafenib, and/or silencing of various cell cycle-associated proteins by siRNA on cell cycle distribution and rereplication were assessed by propidium iodide staining and flow cytometry of asynchronous melanoma cultures. Synchronization of cells was not employed to avoid bias and to be able to measure the impact of these perturbations on proliferating cancer cells. Briefly, asynchronous melanoma cell lines were treated with pevonedistat or vemurafenib, or transfected with si-CDT1, si-CDT2, si-SET8, si-p21, sigeminin, si-EMI1, or si-GL2 for a time ranging from 24 to 96 hours. Cells were washed with cold PBS, harvested, and fixed in 70% (v/v) ethanol. Cells were subsequently treated with 20 μg of DNase-free RNase and stained with propidium iodide according to instructions of the manufacturer. Samples were analyzed on a FACSCAN™ (Becton, Dickinson and Company, Franklin Lakes, N.J., United States of America) and G0-G1, S, and G2-M fractions were segmented, and apoptotic (sub-G1 DNA content) and rereplicating (>G2/M DNA content) fractions were determined using FLOWJO® (FLOWJO, LLC, Ashland, Oreg., United States of America) and ModFit (Verity Software House, Topsham, Me., United States of America) software.

CCCS(=O)(=O)Nc1ccc(F)c(C(=O)c2c[nH]c3ncc(Cl)cc23)c1F [PLX4720]
growth of DM331 xenografts [1]: inhibited

CCCS(=O)(=O)Nc1ccc(F)c(C(=O)c2c[nH]c3ncc(-c4ccc(Cl)cc4)cc23)c1F [vemurafenib, N-(3-(5-(4-chlorophenyl)-1H-pyrrolo[2,3-b]pyridine-3-carbonyl)-2,4-difluorophenyl)propane-1-sulfonamide]
cells undergoing pevonedistat-induced rereplication after vemurafenib pretreatment ([2]; DM93, pretreatment with vemurafenib for 24 hours, then 1 μM pevonedistat 48 hours): 16% | effect on cell cycle ([2]; DM93 cells): robust G1 growth arrest and complete depletion of S-phase cells | sensitivity in vitro of cells from PLX4720-resistant tumors [3]: remained insensitive

B1: Wild-type CDT1: wild-type CDT1 ectopically expressed from retrovirus (protein, UniProt Q9H211 1-546, looked up)
DNA replication factor Cdt1: MEQRRVTDFFARRRPGPPRIAPPKLACRTPSPARPALRAPASATSGSRKRARPPAAPGRDQARPPARRRLRLSVDEVSSPSTPEAPDIPACPSPGQKIKKSTPAAGQPPHLTSAQDQDTISELASCLQRARELGARVRALKASAQDAGESCTPEAEGRPEEPCGEKAPAYQRFHALAQPGLPGLVLPYKYQVLAEMFRSMDTIVGMLHNRSETPTFAKVQRGVQDMMRRRFEECNVGQIKTVYPASYRFRQERSVPTFKDGTRRSDYQLTIEPLLEQEADGAAPQLTASRLLQRRQIFSQKLVEHVKEHHKAFLASLSPAMVVPEDQLTRWHPRFNVDEVPDIEPAALPQPPATEKLTTAQEVLARARNLISPRMEKALSQLALRSAAPSSPGSPRPALPATPPATPPAASPSALKGVSQDLLERIRAKEAQKQLAQMTRCPEQEQRLQRLERLPELARVLRSVFVSERKPALSMEVACARMVGSCCTIMSPGEMEKHLLLLSELLPDWLSLHRIRTDTYVKLDKAADLAHITARLAHQTRAEEGL
Percent Rereplication ([2]; retroviral overexpression of CDT1 species, DM93 per text): 51.4%

B2: Wild-type SET8: N-terminal FLAG-tagged Set8 protein encoded by a retrovirus (protein, UniProt Q9NQR1 1-393, looked up)
N-lysine methyltransferase …: MGEGGAAAALVAAAAAAAAAAAAVVAGQRRRRLGRRARCHGPGRAAGGKMSKPCAVEAAAAAVAATAPGPEMVERRGPGRPRTDGENVFTGQSKIYSYMSPNKCSGMRFPLQEENSVTHHEVKCQGKPLAGIYRKREEKRNAGNAVRSAMKSEEQKIKDARKGPLVPFPNQKSEAAEPPKTPPSSCDSTNAAIAKQALKKPIKGKQAPRKKAQGKTQQNRKLTDFYPVRRSSRKSKAELQSEERKRIDELIESGKEEGMKIDLIDGKGRGVIATKQFSRGDFVVEYHGDLIEITDAKKREALYAQDPSTGCYMYYFQYLSKTYCVDATRETNRLGRLINHSKCGNCQTKLHDIDGVPHLILIASRDIAAGEELLYDYGDRSKASIEAHPWLKH
modifications: N-terminal FLAG tag
notes: N-terminal FLAG-tagged Set8 protein encoded by a retrovirus
Percent Rereplication in DM93 ([2]; retroviral overexpression of SET8 and/or p21 species): 3.87% | Percent Rereplication in VMM39 [4]: 4.98%
